Test [1] deals with T1, signal-FLAG-ARS-extracellular culture supernatant (SEQ ID NO:2 51st to 531st) (Homo sapiens, UniProt Q7Z410, INS90FVSSFQKTELEASCVGCSVLNYRDGNSSVLVHFQ).
T1 construct: made in house; host or cells: HEK293-EBNA
T1 sequence (Q7Z410 with tags, fused parts or gaps): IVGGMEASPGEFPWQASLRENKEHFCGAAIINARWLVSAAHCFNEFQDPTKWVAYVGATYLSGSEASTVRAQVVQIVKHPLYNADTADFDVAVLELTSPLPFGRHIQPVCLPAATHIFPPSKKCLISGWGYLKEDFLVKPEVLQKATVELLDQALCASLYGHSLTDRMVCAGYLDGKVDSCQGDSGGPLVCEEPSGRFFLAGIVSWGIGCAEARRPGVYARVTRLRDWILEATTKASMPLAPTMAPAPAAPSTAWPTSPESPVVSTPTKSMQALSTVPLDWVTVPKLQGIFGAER
T1 sequence (Q7Z410 with tags, fused parts or gaps INS90FVSSFQKTELEASCVGCSVLNYRDGNSSVLVHFQ): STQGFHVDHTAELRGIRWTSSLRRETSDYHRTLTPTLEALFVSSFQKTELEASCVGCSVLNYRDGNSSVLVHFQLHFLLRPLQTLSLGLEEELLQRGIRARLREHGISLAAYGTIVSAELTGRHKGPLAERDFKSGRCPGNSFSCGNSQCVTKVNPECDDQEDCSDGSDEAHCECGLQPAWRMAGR
The experiment in a line: Enzymatic cleavage of MCA-labeled synthetic peptides by signal-FLAG-ARS-extracellular culture supernatant. The class given is biochemical. The conditions noted are these: substrate 100 μM in TBS pH 7.5, 37° C.; never obtained with blank vector supernatant. Here is the method: (§1) The expression plasmids prepared in Examples 3 to 5 were introduced into HEK293-EBNA cell (Invitrogen) using a transfection reagent (FuGENE™6 transfection reagent; Roche) according to the instruction attached thereto. After the introduction of the plasmids, the culture medium was replaced with a serum-free culture medium within 12 to 16 hours and further incubated for another 48 to 60 hours. The culture supernatant was collected and resulting each liquid culture was centrifuged (3000 rpm, 10 minutes) with a centrifuge (Type 8800; Kubota) to obtain culture supernatants. After removing the culture supernatants, the remaining cells were washed with phosphate buffer (PBS; 10 mM sodium phosphate, pH 7.5) and then recovered by scraping from the culture plate by pipetting with phosphate buffer, and centrifuged with a centrifuge (Type 8800; Kubota) at 3000 rpm for 10 minutes. The resulting precipitate was suspended in phosphate buffer, which was defined as the cell fraction. The culture supernatants obtained by the introduction of pCEP-ARSF-FLAG, pCEP-signal-FLAG-ARS-extracellular and pCEP-signal-FLAG-ARS-SerPD are referred to as ARS-FLAG culture supernatant, signal-FLAG-ARS-extracellular culture supernatant, signal-FLAG-ARS-SerPD culture supernatant and signal-FLAG-ARS-SerPDO culture supernatant, respectively.
(§2) The method for detecting enzymatic cleavage activity using a synthetic peptide labeled with MCA (4-methyl-coumaryl-7-amide) in the C terminus was according to the method reported in an academic paper (Yasuoka, S. et al., Am. J. Respir. Cell Mol Biol., Vol. 16, 300-308, 1997), unless otherwise described. […] Subsequently, the fluorescence of AMC (7-amino-4-methyl-coumarin) released from the synthetic peptide by enzymatic cleavage was measured at a wavelength of 460 nm for measurement, using an excitation wavelength of 390 nm with a fluorescent plate reader (Fluostar, SLT).

The subject of test [2] is ARS-FLAG culture supernatant (recombinant ARS protein, SEQ ID NO:2 1st to 531st). Put plainly: Enzymatic cleavage of MCA-labeled synthetic peptides by ARS-FLAG culture supernatant. In kind it is biochemical, human. The conditions noted are these: substrate 100 μM in TBS pH 7.5, 37° C.; never obtained with blank vector supernatant. Here is the method: as §1, §2
Test [3] concerns the target T2, enzyme solution treated with trypsin beads (purified signal-FLAG-ARS-extracellular protein) (Homo sapiens, UniProt Q7Z410, INS90FVSSFQKTELEASCVGCSVLNYRDGNSSVLVHFQ).
T2 construct: FLAG (N); made in house; host or cells: HEK293-EBNA
T2 sequence (Q7Z410 with tags, fused parts or gaps): T1 sequence (Q7Z410 with tags, fused parts or gaps)
T2 sequence (Q7Z410 with tags, fused parts or gaps INS90FVSSFQKTELEASCVGCSVLNYRDGNSSVLVHFQ): T1 sequence (Q7Z410 with tags, fused parts or gaps INS90FVSSFQKTELEASCVGCSVLNYRDGNSSVLVHFQ)
Put plainly: Substrate cleavage activity of purified protein solution treated with trypsin beads. The class given is biochemical. Particulars: substrate 400 μM, ammonium hydrogen carbonate buffer, 37° C. for one hour. Here is the method:
By the same method as in Example 9, an enzyme solution treated with trypsin beads was obtained, using the purified protein solution. Then, the substrate cleavage activity of the enzyme solution was measured by the same method as in Example 8. Specifically, synthetic peptide substrates were diluted in ammonium hydrogen carbonate buffer to become a final concentration of 400 μM in a 96-well plate. After the enzyme solution described above was mixed into the resulting diluted substrates, the mixture were incubated at 37° C. for one hour. Subsequently, the fluorescence of AMC released from the synthetic peptide by enzymatic cleavage were measured.

The target of test [4] is T3, signal-FLAG-ARS-SerPD culture supernatant (SEQ ID NO:2 237th to 531st) (Homo sapiens, UniProt Q7Z410).
T3 construct: made in house; host or cells: HEK293-EBNA
T3 sequence (Q7Z410 with tags, fused parts or gaps): T1 sequence (Q7Z410 with tags, fused parts or gaps)
The experiment in a line: Enzymatic cleavage of MCA-labeled synthetic peptides by signal-FLAG-ARS-SerPD culture supernatant. In kind it is biochemical. Particulars: substrate 100 μM in TBS pH 7.5, 37° C.; never obtained with blank vector supernatant. Here is the method: as §1, §2

*: point of attachment. AMC = Cc1cc(=O)oc2cc(N*)ccc12; Boc = CC(C)(C)OC(=O)*; OBn = c1ccc(CO*)cc1

Take Boc-Glu(OBn)-Ala-Arg-{AMC}: the “cleavage activity of synthetic peptide (fluorescence of released AMC)” value (shortened to “cleavage activity of synthetic peptide”) in test [1], in test [2] and in test [4] was “showed the cleavage activity” throughout. Besides, the “cleavage of synthetic peptide by enzyme solution treated with trypsin beads (fluorescence of released AMC)” value (from here on “cleavage of synthetic peptide”) in test [3] is “cleaved”.

Turning to Boc-Gln-Arg-Arg-{AMC}, the “cleavage activity of synthetic peptide” value in test [1], in test [2] and in test [4] was “showed the cleavage activity” throughout. In addition, the “cleavage of synthetic peptide” value in test [3] was “cleaved”.

In the case of Boc-Phe-Ser-Arg-{AMC}, the “cleavage activity of synthetic peptide” value in test [1], in test [2] and in test [4] was “showed the cleavage activity” in each case. Besides, the “cleavage of synthetic peptide” value in test [3] is on record as “cleaved”.

The values are drawn from US20060134719A1, “Novel serine protease” (priority 2002, published 2006).
